In patent US20260263452A1, “ONCOLOGY COMBINATION THERAPY AND METHODS OF USE” (BeyondSpring Pharmaceuticals, Inc., priority 2023, published 2026):

Tested on: MDA-MB-231 human breast cancer
Assay: MDA-MB-231 human breast cancer SubQ xenograft model in BALB/c nude mice
Assay type: in vivo
Conditions: Day 38, abemaciclib 50 mg/kg PO QD, plinabulin 7.5 mg/kg IP BIW; for mean tumor volume: n=8 per group, vehicle control 1235±24 mm^3
Procedure: The anti-tumor activity of plinabulin as a single agent compared to co-administration with abemaciclib was evaluated in an MDA-MB-231 human breast cancer SubQ xenograft model in BALB/c nude mice. Plinabulin was provided as a 4 mg/mL solution in 40% Solutol, 60% Propylene Glycol. […] Abemaciclib was provided as a crystalline solid. Prior to dosing, an appropriate amount of abemaciclib solid was weighed out and dissolved in 1% hydroxyethyl cellulose in 25 mM phosphate buffer, pH=2, to a concentration of 5 mg/mL to deliver a dose of 50 mg/kg in a 10 mL/kg dosing volume. […] The vehicle control was dosed intraperitoneally at a 10 mL/kg dose volume. The MDA-MB-231 human breast tumor cell line was maintained in L-15 medium supplemented with 10% FBS at 37° C. in an atmosphere of 100% air. Cells were sub-cultured upon reaching about 90% confluence by trypsin-EDTA treatment. Cells in an exponential growth phase were harvested using a trypsin-EDTA mixture. Female BALB/c nude mice were received at 6-8 weeks of age. All mice were acclimated for 7 days prior to study initiation. The mice were housed in housed in polycarbonate cages and maintained under specific pathogen-free conditions. The mice were fed irradiated dry granule food and sterile drinking water was freely available. Mice were inoculated subcutaneously on the right flank with 0.1 mL of L-15 medium/Martigel (1:1) mixture containing a suspension of 1×10^7 cells/mouse of live MDA-MB-231 tumor cells. […] Twenty-eight days following inoculation, thirty-two mice with tumor sizes of 101-124 mm^3 were randomized into four groups of eight mice, each with a mean tumor size of 114 mm^3. Tumor volumes and body weights were recorded when the mice were randomized and were taken twice weekly thereafter. Clinical observations were made daily. Dosing was performed via intraperitoneal injection for vehicle control and plinabulin and administered via oral gavage for abemaciclib as described below in Table 1. Plinabulin was administered one hour post dose of abemaciclib on combined dosing days. [table] […] All mice are included in the TGI calculations. [formula] All statistical analyses in the xenograft study are performed with GraphPad Prism software. p≤0.05 was considered statistically significant. […] A two-tailed Student's t-test with Welch's correction was also used to verify any differences between each group and the vehicle control, as well as single agents and their respective combination groups.

CCN1CCN(Cc2ccc(Nc3ncc(F)c(-c4cc(F)c5nc(C)n(C(C)C)c5c4)n3)nc2)CC1 [abemaciclib]
TGI (tumor growth inhibition) compared to the Vehicle Control group: 59%
mean tumor volume: 572±101 mm^3

CC(C)(C)c1[nH]cnc1/C=c1\[nH]c(=O)/c(=C/c2ccccc2)[nH]c1=O [plinabulin, (3Z,6Z)-3-benzylidene-6-{[5-(2-methyl-2-propanyl)-1H-imidazol-4-yl]methylene}-2,5-piperazinedione]
TGI (tumor growth inhibition) compared to the Vehicle Control group: 26%
mean tumor volume: 942±114 mm^3
